Results published in ChEMBL document CHEMBL1275440, “In vitro activity of telavancin against resistant gram-positive bacteria” (2008).
Values after ≈ are worked out from the molar mass of the structure shown. Active and inactive are the calls of the source. No cut-off for these calls is given here.

Key:
[1] = tested on: Streptococcus pneumoniae; assay: Antibacterial activity against penicillin intermediate Streptococcus pneumoniae clinical isolate assessed as susceptibility level by broth microdilution method; assay type: functional
[2] = tested on: Staphylococcus saprophyticus; assay: Antibacterial activity against methicillin resistant coagulase-negative Staphylococcus saprophyticus clinical isolate assessed as susceptibility level by broth microdilution method; assay type: functional
[3] = Antibacterial activity against methicillin resistant coagulase-negative Staphylococcus hominis subsp. novobiosepticus clinical isolate assessed as susceptibility level by broth microdilution method; assay type: functional
[4] = tested on: Staphylococcus haemolyticus; assay: Antibacterial activity against methicillin resistant coagulase-negative Staphylococcus haemolyticus clinical isolate assessed as susceptibility level by broth microdilution method; assay type: functional
[5] = tested on: Staphylococcus capitis; assay: Antibacterial activity against methicillin resistant coagulase-negative Staphylococcus capitis clinical isolate assessed as susceptibility level by broth microdilution method; assay type: functional
[6] = tested on: Staphylococcus auricularis; assay: Antibacterial activity against methicillin resistant coagulase-negative Staphylococcus auricularis clinical isolate assessed as susceptibility level by broth microdilution method; assay type: functional
[7] = tested on: Staphylococcus epidermidis; assay: Antibacterial activity against methicillin resistant Staphylococcus epidermidis clinical isolate assessed as susceptibility level by broth microdilution method; assay type: functional
[8] = tested on: Staphylococcus aureus; assay: Antibacterial activity against methicillin resistant Staphylococcus aureus clinical isolate assessed as susceptibility level by broth microdilution method; assay type: functional
[9] = tested on: Streptococcus viridans; assay: Antibacterial activity against Streptococcus viridans clinical isolate by broth microdilution method; assay type: functional
[10] = tested on: Streptococcus constellatus; assay: Antibacterial activity against Streptococcus constellatus clinical isolate by broth microdilution method; assay type: functional
[11] = tested on: Streptococcus oralis; assay: Antibacterial activity against Streptococcus oralis clinical isolate by broth microdilution method; assay type: functional
[12] = tested on: Streptococcus intermedius; assay: Antibacterial activity against Streptococcus intermedius clinical isolate by broth microdilution method; assay type: functional
[13] = tested on: Streptococcus mitis; assay: Antibacterial activity against Streptococcus mitis clinical isolate by broth microdilution method; assay type: functional
[14] = tested on: Streptococcus agalactiae; assay: Antibacterial activity against Streptococcus agalactiae group B clinical isolate by broth microdilution method; assay type: functional
[15] = tested on: Streptococcus pyogenes; assay: Antibacterial activity against Streptococcus pyogenes group A clinical isolate by broth microdilution method; assay type: functional
[16] = tested on: Streptococcus pneumoniae; assay: Antibacterial activity against multidrug-resistant Streptococcus pneumoniae clinical isolate by broth microdilution method; assay type: functional
[17] = tested on: Streptococcus pneumoniae; assay: Antibacterial activity against penicillin resistant Streptococcus pneumoniae clinical isolate by broth microdilution method; assay type: functional
[18] = tested on: Streptococcus pneumoniae; assay: Antibacterial activity against penicillin intermediate Streptococcus pneumoniae clinical isolate by broth microdilution method; assay type: functional
[19] = tested on: Staphylococcus saprophyticus; assay: Antibacterial activity against methicillin resistant coagulase-negative Staphylococcus saprophyticus clinical isolate by broth microdilution method; assay type: functional
[20] = Antibacterial activity against methicillin resistant coagulase-negative Staphylococcus hominis subsp. novobiosepticus clinical isolate by broth microdilution method; assay type: functional
[21] = tested on: Staphylococcus haemolyticus; assay: Antibacterial activity against methicillin resistant coagulase-negative Staphylococcus haemolyticus clinical isolate by broth microdilution method; assay type: functional
[22] = tested on: Staphylococcus capitis; assay: Antibacterial activity against methicillin resistant coagulase-negative Staphylococcus capitis clinical isolate by broth microdilution method; assay type: functional
[23] = tested on: Staphylococcus auricularis; assay: Antibacterial activity against methicillin resistant coagulase-negative Staphylococcus auricularis clinical isolate by broth microdilution method; assay type: functional
[24] = tested on: Staphylococcus epidermidis; assay: Antibacterial activity against methicillin resistant Staphylococcus epidermidis clinical isolate by broth microdilution method; assay type: functional
[25] = tested on: Staphylococcus aureus; assay: Antibacterial activity against methicillin resistant Staphylococcus aureus clinical isolate by broth microdilution method; assay type: functional; settings: for MIC50 / MIC90: Staphylococcus aureus
[26] = tested on: Enterococcus faecium; assay: Antibacterial activity against vancomycin resistant Enterococcus faecium VanB clinical isolate assessed as susceptibility level by broth microdilution method; assay type: functional
[27] = tested on: Enterococcus faecium; assay: Antibacterial activity against vancomycin resistant Enterococcus faecium VanA clinical isolate assessed as susceptibility level by broth microdilution method; assay type: functional
[28] = tested on: Enterococcus faecalis; assay: Antibacterial activity against vancomycin resistant Enterococcus faecalis VanB clinical isolate assessed as susceptibility level by broth microdilution method; assay type: functional
[29] = tested on: Enterococcus faecalis; assay: Antibacterial activity against vancomycin resistant Enterococcus faecalis VanA clinical isolate assessed as susceptibility level by broth microdilution method; assay type: functional
[30] = tested on: Enterococcus faecium; assay: Antibacterial activity against vancomycin resistant Enterococcus faecium VanB clinical isolate by broth microdilution method; assay type: functional
[31] = tested on: Enterococcus faecium; assay: Antibacterial activity against vancomycin resistant Enterococcus faecium VanA clinical isolate by broth microdilution method; assay type: functional
[32] = tested on: Enterococcus faecalis; assay: Antibacterial activity against vancomycin resistant Enterococcus faecalis VanB clinical isolate by broth microdilution method; assay type: functional
[33] = tested on: Enterococcus faecalis; assay: Antibacterial activity against vancomycin resistant Enterococcus faecalis VanA clinical isolate by broth microdilution method; assay type: functional
[34] = tested on: Enterococcus faecalis

Structure (SMILES): CC[C@H]1OC(=O)[C@H](C)C(=O)[C@H](C)[C@@H](O[C@@H]2O[C@H](C)C[C@H](N(C)C)[C@H]2O)[C@](C)(OC)C[C@@H](C)C(=O)[C@H](C)[C@H]2N(CCCCn3cnc(-c4cccnc4)c3)C(=O)O[C@]12C [TELITHROMYCIN]
- Activity [1]: 100%
- Activity [2]: 29%
- Activity [3]: 29%
- Activity [4]: 29%
- Activity [5]: 29%
- Activity [6]: 29%
- Activity [7]: 43%
- Activity [8]: 83%
- MIC [9]: 4 ng/mL (≈ 0.00493 µM)
- MIC50 [9]: inactive
- MIC90 [9]: inactive
- MIC [10]: 4 ng/mL (≈ 0.00493 µM)
- MIC50 [10]: inactive
- MIC90 [10]: inactive
- MIC [11]: 4 ng/mL (≈ 0.00493 µM)
- MIC50 [11]: inactive
- MIC90 [11]: inactive
- MIC [12]: 4 ng/mL (≈ 0.00493 µM)
- MIC50 [12]: inactive
- MIC90 [12]: inactive
- MIC [13]: 4 ng/mL (≈ 0.00493 µM)
- MIC50 [13]: inactive
- MIC90 [13]: inactive
- MIC50 [14]: 0.015 µg/mL (≈ 0.0185 µM)
- MIC90 [14]: 0.25 µg/mL (≈ 0.308 µM)
- MIC50 [15]: 0.015 µg/mL (≈ 0.0185 µM)
- MIC90 [15]: 0.015 µg/mL (≈ 0.0185 µM)
- MIC50 [16]: 0.06 µg/mL (≈ 0.0739 µM)
- MIC90 [16]: 0.5 µg/mL (≈ 0.616 µM)
- MIC50 [17]: 0.06 µg/mL (≈ 0.0739 µM)
- MIC90 [17]: 0.5 µg/mL (≈ 0.616 µM)
- MIC50 [18]: 0.03 µg/mL (≈ 0.0369 µM)
- MIC90 [18]: 0.12 µg/mL (≈ 0.148 µM)
- MIC50 [19]: > 8 µg/mL
- MIC90 [19]: > 8 µg/mL
- MIC50 [20]: > 8 µg/mL
- MIC90 [20]: > 8 µg/mL
- MIC50 [21]: > 8 µg/mL
- MIC90 [21]: > 8 µg/mL
- MIC50 [22]: > 8 µg/mL
- MIC90 [22]: > 8 µg/mL
- MIC50 [23]: > 8 µg/mL
- MIC90 [23]: > 8 µg/mL
- MIC50 [24]: 0.5 µg/mL (≈ 0.616 µM)
- MIC90 [24]: > 8 µg/mL
- Activity [25]: 83%
- MIC50 [25]: 0.25 µg/mL (≈ 0.308 µM)
- MIC90 [25]: 16 µg/mL (≈ 19.7 µM)

Structure (SMILES): CC(=O)N[C@@H]1[C@H](Oc2c3cc4cc2Oc2ccc(cc2Cl)[C@@H](O[C@@H]2O[C@@H](CO)[C@@H](O)[C@H](O)[C@@H]2NC(C)=O)[C@@H]2NC(=O)[C@H](NC(=O)[C@@H]4NC(=O)[C@H]4NC(=O)[C@@H](Cc5ccc(c(Cl)c5)O3)NC(=O)[C@H](N)c3ccc(O)c(c3)Oc3cc(O)cc4c3)c3ccc(O)c(c3)-c3c(O[C@H]4O[C@H](CO)[C@@H](O)[C@@H](O)[C@@H]4O)cc(O)cc3[C@@H](C(=O)O)NC2=O)O[C@@H](CO)[C@@H](O)[C@@H]1O
- Activity [26]: 100%
- Activity [27]: 0%
- Activity [28]: 100%
- Percent of isolates susceptible [29]: 0%
- Activity [2]: 88%
- Activity [3]: 88%
- Activity [4]: 88%
- Activity [5]: 88%
- Activity [6]: 88%
- Activity [7]: 81%
- Activity [8]: 32%
- MIC50 [30]: 0.5 µg/mL (≈ 0.283 µM)
- MIC90 [30]: 1 µg/mL (≈ 0.566 µM)
- MIC50 [31]: 64 µg/mL (≈ 36.2 µM)
- MIC90 [31]: > 128 µg/mL
- MIC [32]: 0.5 µg/mL (≈ 0.283 µM)
- MIC50 [33]: 64 µg/mL (≈ 36.2 µM)
- MIC90 [33]: > 128 µg/mL
- MIC50 [19]: 4 µg/mL (≈ 2.26 µM)
- MIC90 [19]: 32 µg/mL (≈ 18.1 µM)
- MIC50 [20]: 4 µg/mL (≈ 2.26 µM)
- MIC90 [20]: 32 µg/mL (≈ 18.1 µM)
- MIC50 [21]: 4 µg/mL (≈ 2.26 µM)
- MIC90 [21]: 32 µg/mL (≈ 18.1 µM)
- MIC50 [22]: 4 µg/mL (≈ 2.26 µM)
- MIC90 [22]: 32 µg/mL (≈ 18.1 µM)
- MIC50 [23]: 4 µg/mL (≈ 2.26 µM)
- MIC90 [23]: 32 µg/mL (≈ 18.1 µM)
- MIC50 [24]: 8 µg/mL (≈ 4.53 µM)
- MIC90 [24]: 16 µg/mL (≈ 9.05 µM)
- Activity [25]: 32%
- MIC50 [25]: 0.5 µg/mL (≈ 0.283 µM)
- MIC90 [25]: 1 µg/mL (≈ 0.566 µM)
- MIC50 [34]: inactive
- MIC90 [34]: inactive
